From patent publication US20210379063A1, “ORAL AMINODIHYDROPHTHALAZINEDIONE COMPOSITIONS AND THEIR USE IN THE TREATMENT OF NON-VIRAL HEPATITIS” (Immunopharma Plus D.O.O., priority 2018, published 2021)
“Also recorded” adds a separate entry of the source. Like-named read-outs stand apart in the source and are kept apart here.

Key:
[1] = system: porcine large intestine (colon); assay: in vitro; conditions: pig, 10 mM, pH 7.4
Method: (§1) The intestine was prepared so the mucous side will be facing the donor compartment.

in vitro = conditions: pig, pH 7.4
Method: as §1

[2] = cited from earlier work
porcine stomach (cardia) = conditions: for concentration in receptor compartment, Propranolol stomach, AVG / concentration in receptor compartment, Propranolol stomach: 10 mM donor solution; for concentration in receptor compartment, Propranolol stomach: single chambers
PHMG poisoning = assay: Acute hepatitis caused by alcohol substitute PHMG in rats; conditions: single intraperitoneal injection, 50 mg/100 g
Method: The experiment was carried out on 25 male white outbred rats weighing 200-300 g, in accordance with the recommendations of the international ethics committees on the humane treatment of laboratory animals (EU Council Directive 86/609 EEC dated Nov. 24, 1986). To create an experimental model, an aqueous solution of PHMG was used, which was administered intraperitoneally at a dose of 50 mg/100 g.

Method for porcine small intestine: Porcine Small Intestinal (SI) Permeability Procedure • Full thickness pig small intestinal delivered to Solubest on the day of the experiment. • Experiments were carried out on 6 slices 2 cm*2 cm with full thickness pig small intestinal sample • The intestinal was prepared so brush border side is facing the donor compartment. • According to Solubest protocol the excess mucus and connective tissue were removed • The receiver compartment contains 0.01M Phosphate Buffer pH 7.4 (PBS). • Receiver's samples were withdrawn at 5 time points (30 min, 60 min, 120 min, 4 hours and 6 hours). • Water pump was set to temp 38±1° C. in order to keep fixed temp in receptor department at 37±1° C.

CC(C)NCC(O)COc1cccc2ccccc12 (centres unmarked) [Propranolol]
concentration in receptor comp, large intestine, AVG ([1]; 0 min): 0.000 mg/mL | concentration in receptor compartment, large intestine ([1]; 0 min): 0 mg/mL | mg in receptor comp ([1]; 0 min): 0.000 mg | concentration in receptor comp, large intestine, AVG ([1]; 30 min): 0.002 mg/mL | mg in receptor comp ([1]; 30 min): 0.010 mg | concentration in receptor comp, large intestine, AVG ([1]; 60 min): 0.005 mg/mL | mg in receptor comp ([1]; 60 min): 0.026 mg | concentration in receptor comp, large intestine, AVG ([1]; 120 min): 0.014 mg/mL | mg in receptor comp ([1]; 120 min): 0.068 mg | concentration in receptor comp, large intestine, AVG ([1]; 240 min): 0.031 mg/mL | mg in receptor comp ([1]; 240 min): 0.154 mg | concentration in receptor comp, large intestine, AVG ([1]; 360 min): 0.045 mg/mL | mg in receptor comp ([1]; 360 min): 0.223 mg | concentration in receptor comp, large intestine, AVG ([1]; 720 min): 0.084 mg/mL | mg in receptor comp ([1]; 720 min): 0.421 mg | recovery at 0 min, 10 mM (in vitro): 0% | recovery at 30 min, 10 mM (in vitro): 0.16% | recovery at 60 min, 10 mM (in vitro): 0.4% | recovery at 120 min, 10 mM (in vitro): 1.04% | recovery at 240 min, 10 mM (in vitro): 2.36% | recovery at 360 min, 10 mM (in vitro): 3.43% | recovery at 720 min, 10 mM (in vitro): 6.47% | time of peak plasma levels ([2]; after ingestion): 1 to 3 h | BSC classification ([2]; high solubility, high permeability): class 1 | permeation through stomach tissue, in words (porcine stomach (cardia)): almost no permeation; also recorded: poorly penetrate through the stomach tissue | concentration in receptor compartment, Propranolol stomach, AVG (porcine stomach (cardia); 0 min): 0.000 mg/mL | concentration in receptor compartment, Propranolol stomach (porcine stomach (cardia); 0 min): 0 mg/mL | concentration in receptor compartment, Propranolol stomach, AVG (porcine stomach (cardia); 30 min): 0.000 mg/mL | concentration in receptor compartment, Propranolol stomach (porcine stomach (cardia); 30 min): 0.0000 mg/mL | concentration in receptor compartment, Propranolol stomach, AVG (porcine stomach (cardia); 60 min): 0.000 mg/mL | concentration in receptor compartment, Propranolol stomach (porcine stomach (cardia); 60 min): 0.0000 mg/mL | concentration in receptor compartment, Propranolol stomach, AVG (porcine stomach (cardia); 120 min): 0.000 mg/mL | concentration in receptor compartment, Propranolol stomach (porcine stomach (cardia); 120 min): 0.0000 mg/mL | concentration in receptor compartment, Propranolol stomach, AVG (porcine stomach (cardia); 240 min): 0.000 mg/mL | concentration in receptor compartment, Propranolol stomach (porcine stomach (cardia); 240 min): 0.0000 mg/mL | concentration in receptor compartment, Propranolol stomach, AVG (porcine stomach (cardia); 420 min): 0.000 mg/mL | concentration in receptor compartment, Propranolol stomach (porcine stomach (cardia); 420 min): 0.0000 mg/mL | permeability through small intestine tissue, in words (porcine small intestine): well adsorbed | concentration in receptor compartment, small intestine, AVG (porcine small intestine; 10 mM donor solution, 0 min): 0.000 mg/mL | concentration in receptor compartment, small intestine (porcine small intestine; 10 mM donor solution, 0 min, single chambers): 0 mg/mL | concentration in receptor compartment, small intestine, AVG (porcine small intestine; 10 mM donor solution, 30 min): 0.001 mg/mL | concentration in receptor compartment, small intestine, AVG (porcine small intestine; 10 mM donor solution, 60 min): 0.005 mg/mL | concentration in receptor compartment, small intestine, AVG (porcine small intestine; 10 mM donor solution, 120 min): 0.013 mg/mL | concentration in receptor compartment, small intestine, AVG (porcine small intestine; 10 mM donor solution, 240 min): 0.033 mg/mL | concentration in receptor compartment, small intestine, AVG (porcine small intestine; 10 mM donor solution, 360 min): 0.055 mg/mL | permeability through small intestine tissue, in words (porcine small intestine; listed as propranolol): permeates well

polyhexamethyleneguanidine [PHMG]
mortality (PHMG poisoning): about 70%
